Data reported in the NIST ThermoML archive (doi:10.1021/acs.jced.8b01135).

Assay: xn = mol fraction of the nth substance listed
Conditions: 102 kPa, Liquid; for speed of sound: Frequency=3 MHz, Single path-length method; for mass density: Vibrating tube method; for viscosity: Concentric cylinders viscometry

CCCCCCCCCCCCC1CCCCC1 [dodecylcyclohexane] + CCCCCCCCCCCC
Conditions | mass density [kg/m3] | speed of sound [m/s] | viscosity [mPa·s]
288.15 K, x1 = 0.1005 | 762.18 | 1333.2 | –
288.15 K, x1 = 0.2001 | 771.24 | 1348 | –
288.15 K, x1 = 0.298 | 779.52 | 1361.9 | –
288.15 K, x1 = 0.4031 | 787.8 | 1375.7 | –
288.15 K, x1 = 0.5001 | 794.95 | 1387.9 | –
288.15 K, x1 = 0.6005 | 801.89 | 1400 | –
288.15 K, x1 = 0.7003 | 808.42 | 1411.3 | –
288.15 K, x1 = 0.7997 | 814.5 | 1421.8 | –
288.15 K, x1 = 0.8994 | 820.23 | 1432.1 | –
288.15 K, x1 = 1 | 825.71 | 1441.5 | –
293.15 K, x1 = 0.1005 | 758.6 | 1313.7 | 1.82
293.15 K, x1 = 0.2001 | 767.69 | 1328.7 | 2.14
293.15 K, x1 = 0.298 | 776 | 1342.6 | 2.53
293.15 K, x1 = 0.4031 | 784.32 | 1356.6 | 3.03
293.15 K, x1 = 0.5001 | 791.49 | 1368.9 | 3.55
293.15 K, x1 = 0.6005 | 798.47 | 1381 | 4.17
293.15 K, x1 = 0.7003 | 805.01 | 1392.4 | 4.9
293.15 K, x1 = 0.7997 | 811.11 | 1403.1 | 5.73
293.15 K, x1 = 0.8994 | 816.87 | 1413.3 | 6.68
293.15 K, x1 = 1 | 822.36 | 1422.9 | 7.76
298.15 K, x1 = 0.1005 | 755.01 | 1294.4 | –
298.15 K, x1 = 0.2001 | 764.14 | 1309.5 | –
298.15 K, x1 = 0.298 | 772.48 | 1323.5 | –
298.15 K, x1 = 0.4031 | 780.84 | 1337.6 | –
298.15 K, x1 = 0.5001 | 788.04 | 1350 | –
298.15 K, x1 = 0.6005 | 795.04 | 1362.1 | –
298.15 K, x1 = 0.7003 | 801.61 | 1374 | –
298.15 K, x1 = 0.7997 | 807.73 | 1384.7 | –
298.15 K, x1 = 0.8994 | 813.51 | 1395.1 | –
298.15 K, x1 = 1 | 819.02 | 1404.8 | –
303.15 K, x1 = 0.1005 | 751.42 | 1275.3 | 1.53
303.15 K, x1 = 0.2001 | 760.58 | 1290.5 | 1.75
303.15 K, x1 = 0.298 | 768.97 | 1304.6 | 2.05
303.15 K, x1 = 0.4031 | 777.36 | 1318.8 | 2.43
303.15 K, x1 = 0.5001 | 784.59 | 1331.3 | 2.82
303.15 K, x1 = 0.6005 | 791.62 | 1343.5 | 3.28
303.15 K, x1 = 0.7003 | 798.2 | 1355.4 | 3.79
303.15 K, x1 = 0.7997 | 804.35 | 1366.3 | 4.38
303.15 K, x1 = 0.8994 | 810.15 | 1376.6 | 5.05
303.15 K, x1 = 1 | 815.68 | 1386.3 | 5.81
313.15 K, x1 = 0.1005 | 744.23 | 1237.7 | 1.29
313.15 K, x1 = 0.2001 | 753.48 | 1253.1 | 1.46
313.15 K, x1 = 0.298 | 761.93 | 1267.5 | 1.7
313.15 K, x1 = 0.4031 | 770.4 | 1281.9 | 1.99
313.15 K, x1 = 0.5001 | 777.69 | 1294.6 | 2.28
313.15 K, x1 = 0.6005 | 784.77 | 1307 | 2.63
313.15 K, x1 = 0.7003 | 791.4 | 1319.2 | 3.01
313.15 K, x1 = 0.7997 | 797.6 | 1330.2 | 3.45
313.15 K, x1 = 0.8994 | 803.45 | 1340.7 | 3.93
313.15 K, x1 = 1 | 809.03 | 1350.5 | 4.48
323.15 K, x1 = 0.1005 | 737.02 | 1200.9 | 1.09
323.15 K, x1 = 0.2001 | 746.35 | 1216.6 | 1.27
323.15 K, x1 = 0.298 | 754.88 | 1231.1 | 1.43
323.15 K, x1 = 0.4031 | 763.43 | 1245.9 | 1.66
323.15 K, x1 = 0.5001 | 770.78 | 1258.7 | 1.89
323.15 K, x1 = 0.6005 | 777.93 | 1271.3 | 2.16
323.15 K, x1 = 0.7003 | 784.61 | 1283.6 | 2.45
323.15 K, x1 = 0.7997 | 790.86 | 1294.8 | 2.78
323.15 K, x1 = 0.8994 | 796.76 | 1305.4 | 3.14
323.15 K, x1 = 1 | 802.38 | 1315.4 | 3.55
333.15 K, x1 = 0.1005 | 729.78 | 1165.1 | 0.945
333.15 K, x1 = 0.2001 | 739.2 | 1181 | 1.09
333.15 K, x1 = 0.298 | 747.81 | 1195.8 | 1.22
333.15 K, x1 = 0.4031 | 756.44 | 1210.7 | 1.4
333.15 K, x1 = 0.5001 | 763.86 | 1223.8 | 1.59
333.15 K, x1 = 0.6005 | 771.08 | 1236.5 | 1.8
333.15 K, x1 = 0.7003 | 777.81 | 1248.9 | 2.03
333.15 K, x1 = 0.7997 | 784.13 | 1260.3 | 2.29
333.15 K, x1 = 0.8994 | 790.08 | 1271 | 2.57
333.15 K, x1 = 1 | 795.75 | 1281.4 | 2.88
